Source: patent US20240110183A1, “ANTIFIBROTIC AND ANTITUMOR ACTIVITY OF CD63 BLOCKADE” (The Board of Trustees of the Leland Stanford Junior …, priority 2020, published 2024)

System: HK2, NRK52E, NRK49F cell lines
Assay: RT-qPCR analysis of kidney cell lines treated with TGFβ1
Type: cell-based, human, rat
Conditions: TGFβ1 10 ng/ml, FIG. 21
Protocol: FIG. 21A-FIG. 21C. Activation of TGFβ1 signaling pathway elevated the expression of fibrotic related proteins in 3 kidney cell lines. (FIG. 21 FIG. 21A) Human epithelial (HK2), (FIG. 21 B) rat epithelial (NRK52E), (FIG. 21C) rat fibroblast (NRK49F) cell lines were treated with TGFβ1 (10 ng/ml) or TGFβ1 (10 ng/ml) plus LY2109761 (2.5 μM) for indicated times in hours.
Activation of TGFβ1 signaling pathway elevated the expression of fibrotic related proteins in 3 kidney cell lines. Human epithelial (HK2), rat epithelial (NRK52E), rat fibroblast (NRK49F) cell lines were treated with TGFβ1 (10 ng/ml) or TGFβ1 (10 ng/ml) plus LY2109761 (2.5 μM) for times indicated in hours as shown in FIG. 21 A-C.

TGFβ1: TGFβ1 (10 ng/ml) used to activate the TGFβ1 signaling pathway in kidney cell lines
expression of CD63 and its known interactor TIMP1 (HK2, NRK52E, NRK49F): not increased | expression of fibrotic related proteins (human epithelial (HK2), rat epithelial (NRK52E), rat fibroblast (NRK49F)): elevated
